Article PMC12135181, “The mechanism of lineage-specific tRNA recognition by bacterial tryptophanyl-tRNA synthetase and its implications for inhibitor discovery” (Nucleic Acids Research, 2025)
Like-named read-outs stand apart in the source and are kept apart here.

Experiments:
[1] = molecular target: T1, EcTrpRS (Escherichia coli, UniProt P00954); assay: Pyrophosphate (PPi) production assay; assay type: biochemical; conditions: 10 μM compound, average of three; for inhibition at 10 µM: read-out: Inhibitory rate of PPi production activity of EcTrpRS
T1 construct: hexahistidine tag (C); made in house; host or cells: Escherichia coli BL21(DE3)
Description: The inhibitory effects of various compounds of EcTrpRS were evaluated using a pyrophosphate (PPi) production assay. EcTrpRS was incubated with 10 μM (in 0.1% DMSO) of each compound for 10 min at room temperature. […] The mixture was incubated at 26°C for 45 min, after which 40 μl of malachite green reagent was added to terminate the reaction and develop color. Following an additional incubation of 10 min, the absorbance (A) was measured at 640 nm using a Synergy H1 microplate reader (BioTek). The absorbance of the reaction without adding a compound was designated as A1, the absorbance of the reaction without adding EcTrpRS was A0, and the absorbance of the reaction with the addition of a compound was AC. The inhibitory rates of compounds on enzyme activity were calculated as (A1 − AC)/(A1 − A0) × 100%. Each reaction was performed in triplicate.

[2] = molecular target: T1, EcTrpRS; assay type: binding
[3] = molecular target: T1, EcTrpRS; assay: Isothermal titration calorimetry (ITC) to EcTrpRS; assay type: binding
Description: (§1) The binding affinities of various compounds to EcTprRS were measured using a MicroCal VP-ITC microcalorimeter (MicroCal). Compounds at a concentration of 200 μM were titrated into 20 μM of EcTrpRS in PBS (phosphate buffered saline) buffer (137 mM NaCl, 2.7 mM KCl, 8 mM Na2HPO4, and 2 mM KH2PO4). The titration assays were conducted at 26°C, beginning with an initial injection of 0.4 μl, followed by 18 injections of 2 μl each, with an interval of 120 s between each injection. The dissociation constants (Kd) were calculated by fitting the calorimetric data to a one-site binding model using MicroCal PEAQ-ITC analysis software, with the reported errors in Kd values representing the curve fitting errors. All isothermal titration calorimetry (ITC) experiments were repeated at least twice, and the titrations of compounds to HcTrpRS were also performed for comparison.

[4] = molecular target: T2, HcTrpRS (Homo sapiens, UniProt P23381); assay: Isothermal titration calorimetry (ITC) to HcTrpRS; assay type: binding
T2 construct: made in house
T2 sequence (P23381 1-471): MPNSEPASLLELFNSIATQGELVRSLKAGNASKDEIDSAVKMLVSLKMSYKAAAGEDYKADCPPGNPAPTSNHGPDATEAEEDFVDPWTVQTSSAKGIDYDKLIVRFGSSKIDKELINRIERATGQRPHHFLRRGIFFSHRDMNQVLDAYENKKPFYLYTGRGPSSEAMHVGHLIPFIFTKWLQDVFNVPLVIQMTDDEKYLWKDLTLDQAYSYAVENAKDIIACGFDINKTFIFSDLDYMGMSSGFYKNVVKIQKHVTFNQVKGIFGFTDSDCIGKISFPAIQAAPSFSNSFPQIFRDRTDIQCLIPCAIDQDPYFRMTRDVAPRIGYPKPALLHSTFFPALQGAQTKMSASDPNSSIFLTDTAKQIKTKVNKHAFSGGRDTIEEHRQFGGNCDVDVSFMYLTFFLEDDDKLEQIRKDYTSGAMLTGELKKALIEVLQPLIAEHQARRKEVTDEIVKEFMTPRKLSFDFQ
Description: as §1

[5] = no tRNA, no ATP, 26°C, PBS, read-out: Kd for binding to EcTrpRS (ITC)

With `Nc1ncnc2n[nH]c(-c3ccc(Oc4ccccc4)cc3)c12` [IBT4A] the “Inhibitory rate of PPi production activity of EcTrpRS” value (from here on “Inhibitory rate”) ([1]; 10 µM) was “nor did they exhibit considerable inhibitory rates” and the “Inhibitory rate” value ([1]; listed as 8, 10 µM) was less than 5%.
In the case of `C=CC(=O)N1CCC[C@H](n2c(=O)n(-c3ccc(Oc4ccccc4)cc3)c3c(N)ncnc32)C1` [ONO-4059 analogue], the “Change of ΔTm of EcTrpRS with compound after addition of tRNA^Trp” value (“Change of ΔTm of EcTrpRS with compound” below) [2] is reported as “reduced” and the inhibition at 10 µM [1] is reported as 38%.
For `C=CC(=O)N1CCC[C@@H](n2nc(-c3ccc(Oc4ccccc4)cc3)c3c(N)ncnc32)C1` [ibrutinib], the “ΔTm of EcTrpRS” value [2] was “did not produce significant changes”, the “Inhibitory rate” value [1] was “nor did they exhibit considerable inhibitory rates” and the inhibition at 10 µM [1] was 12%.
Work on `CN=C1NC(=O)[C@H]([C@H](C)c2c[nH]c3ccccc23)O1` [indolmycin] yielded an inhibition at 10 µM [1] of 93%, a Kd ([3]; in the absence of ATP, read-out: Kd (binding affinity) to EcTrpRS (ITC)) of 0.804 ± 0.054 µM and a Kd ([3]; in the presence of 1 mM ATP, read-out: Kd (binding affinity) to EcTrpRS (ITC)) of 0.503 ± 0.031 µM.
For `N[C@@H](Cc1c[nH]c2ccccc12)C(=O)O` [L-Trp, tryptophan], the “Binding to EcTrpRS (ITC)” value ([3]; in the presence of 200 μM N-piperidine ibrutinib) was “no binding” and the Kd [3, 5] was 40.2 ± 4.8 µM.
For `CC#CC(=O)N1CC[C@@H](n2c(=O)n(-c3ccc(Oc4ccccc4)cc3)c3c(N)ncnc32)C1` [tirabrutinib], the “Binding affinity for HcTrpRS (ITC)” value [4] was “no binding affinities”, the “Change of ΔTm of EcTrpRS with compound” value [2] was “reduced” and the inhibition at 10 µM [1] was 50%. It also gave a Kd [3, 5] of 4.8 ± 0.2 µM.
In the case of `C=CC(=O)N1CCC[C@@H](n2c(=O)n(-c3ccc(Oc4ccccc4)cc3)c3c(N)nccc32)C1` [tolebrutinib], the “Change of ΔTm of EcTrpRS with compound” value [2] is reported as “reduced” and the inhibition at 10 µM [1] is reported as 19%.
For `Nc1ncnc2c1c(-c1ccc(Oc3ccccc3)cc1)nn2[C@@H]1CCCNC1` [IBT6A], the “Inhibitory rate” value ([1]; 10 µM) was “nor did they exhibit considerable inhibitory rates” and the “Inhibitory rate” value ([1]; listed as 6, 10 µM) was 9%.
For `Nc1ncnc2c1c(-c1ccc(Oc3ccccc3)cc1)nn2C1CCCC1` [PCI-29732], the “Inhibitory rate” value ([1]; 10 µM) was “nor did they exhibit considerable inhibitory rates” and the “Inhibitory rate” value ([1]; listed as 7, 10 µM) was less than 5%.
